Patent US9968596B2 (Celgene Corporation, priority 2014, dated 2018)
Where a name gives a salt, the structure may show the parent alone.

system: KG-1 cell line; assay: Effect of test compounds on KG-1 cell proliferation (Cell Titer-Glo viability, 72 hours); assay type: cell-based; details: Homo sapiens, read-out: FCA Prolif Cell TiterGlo KG-1 72 h (IC50)
Experimental: The anti-proliferative activity of the test compound was evaluated on KG-1 cell line (American Type Culture Collection [ATCC]: catalogue number ATCC® CCL-246™) at 72 hours post-treatment. The seeding density for KG-1 was optimized to ensure assay linearity in 384-well plates.
Increasing concentrations of the test compound (0.5 nM to 10 μM) were spotted in a 10-point serial dilution fashion (3-fold dilution) in duplicate via an acoustic dispenser (EDC ATS-100) into an empty 384-well plate. The dimethyl sulfoxide (DMSO) concentration was kept constant for a final assay concentration of 0.1% DMSO. Prior to testing, KG-1 cells were grown in RPMI-1640 (Roswell Park Memorial Institute—1640) medium with 10% FBS (fetal bovine serum: HyClone) and expanded in culture flasks to provide sufficient amounts of starting material. Cells were then diluted to 5000 cells per well, in a 50 μL volume and added directly to the compound-spotted 384-well plates. Cells were allowed to grow for 72 hours in 5% CO2 at 37° C. At the time when exposure of cells to compound began (t0), initial viable cell number was assessed via Cell Titer-Glo® Luminescent Cell Viability Assay at a 1 vol:2 vol ratio according to manufacturer's instructions (Promega Corporation, Madison, Wis.) by quantifying the level of luminescence generated by adenosine-5′-triphosphate (ATP) present in viable cells. After 72 hours, cell viability of t-treated cells was assessed via Cell Titer-Glo® and read for luminescence.

| SMILES | IC50 [nM] |
| --- | --- |
| COc1ccc(C(F)(F)C(=O)NCc2ccc3c(c2)CN(C2CCC(=O)NC2=O)C3=O)cc1 (centres unmarked) [Example 3] | 100 to 10000 |
| O=C1CCC(N2Cc3cc(CNC(=O)C(F)(F)c4ccc(F)cc4)ccc3C2=O)C(=O)N1 (centres unmarked) [Example 5] | 10 to 50 |
| O=C1CCC(N2Cc3cc(CNC(=O)C(F)(F)c4ccccc4Cl)ccc3C2=O)C(=O)N1 (centres unmarked) [Example 8] | 100 to 10000 |
| O=C1CCC(N2Cc3cc(CNC(=O)C(F)(F)c4c(F)cccc4F)ccc3C2=O)C(=O)N1 (centres unmarked) [Example 14] | 100 to 10000 |
| Cc1ccccc1C(F)(F)C(=O)NCc1ccc2c(c1)CN(C1CCC(=O)NC1=O)C2=O (centres unmarked) [Example 15, N-((2-(2,6-dioxopiperidin-3-yl)-1-oxoisoindolin-5-yl)methyl)-2,2-difluoro-2-(o-tolyl)acetamide] | 10 to 50 |
| CC(C)Oc1ccc(C(F)(F)C(=O)NCc2ccc3c(c2)CN(C2CCC(=O)NC2=O)C3=O)cc1 (centres unmarked) [Example 22] | 10 to 50 |
| O=C1CCC(N2Cc3cc(CNC(=O)C(F)(F)c4ccc(F)c(F)c4)ccc3C2=O)C(=O)N1 (centres unmarked) [Example 23] | 100 to 10000 |
| O=C1CCC(N2Cc3cc(CNC(=O)C(F)(F)c4cccc(F)c4)ccc3C2=O)C(=O)N1 (centres unmarked) [Example 24] | 100 to 10000 |
| O=C1CCC(N2Cc3cc(CNC(=O)C(F)(F)C4(O)CCCC4)ccc3C2=O)C(=O)N1 (centres unmarked) [Example 66] | 100 to 10000 |
| CC(C)(F)c1ccc(C(F)(F)C(=O)NCc2ccc3c(c2)CN(C2CCC(=O)NC2=O)C3=O)cc1 (centres unmarked) [Example 92] | 50 to 100 |
| CC(C)(C)c1ccc(C(F)(F)C(=O)NCc2ccc3c(c2)CN(C2CCC(=O)NC2=O)C3=O)nc1 (centres unmarked) [Example 96, hydrochloride] | 10 to 50 |
| O=C1CCC(N2Cc3cc(CNC(=O)C(F)(F)c4ccc(C5CC5)cn4)ccc3C2=O)C(=O)N1 (centres unmarked) [Example 97] | 100 to 10000 |
| O=C1CCC(N2Cc3cc(CNC(=O)C(F)(F)c4ccc(F)cc4OC(F)(F)F)ccc3C2=O)C(=O)N1 (centres unmarked) [Example 100] | 50 to 100 |
| CS(=O)(=O)c1cccc(C(F)(F)C(=O)NCc2ccc3c(c2)CN(C2CCC(=O)NC2=O)C3=O)c1 (centres unmarked) [Example 103] | 100 to 10000 |
| Nc1ncc(C(F)(F)C(=O)NCc2ccc3c(c2)CN(C2CCC(=O)NC2=O)C3=O)cn1 (centres unmarked) [Example 104] | 100 to 10000 |
| Cn1nc(C(F)(F)C(=O)NCc2ccc3c(c2)CN(C2CCC(=O)NC2=O)C3=O)ccc1=O (centres unmarked) [Example 107] | 100 to 10000 |
| CN1CCN(c2cccc(C(F)(F)C(=O)NCc3ccc4c(c3)CN(C3CCC(=O)NC3=O)C4=O)c2)CC1 (centres unmarked) [Example 114, hydrochloride] | 100 to 10000 |
